Assay results published in patent publication US10206909B2, “3-(1H-pyrrolo[2,3-B]pyridin-2-yl)-1H-pyrazolo[4,3-B]pyridines and therapeutic uses thereof” (Samumed, LLC, priority 2015, dated 2019).

Key:
[1] = system: primary human mesenchymal stem cells (hMSCs); assay: Chondrogenesis induction in mesenchymal stem cells (nodule count); type: cell-based; settings: 144 h, 6 days; for Emax: relative to TGF-β3 (10 ng/mL) positive control, read-out: Max. Activity as % TGF-β3 activity; for EC50: concentration required to induce 50% levels of chondrogenesis vs TGF-β3, read-out: Conc (nM) of 50% TGF-β3 activity
Procedure: Representative compounds were screened using primary human mesenchymal stem cells (hMSCs) to determine their ability to induce chondrogenesis (process by which cartilage is developed).
Human Mesenchymal Stem Cell Culture: Primary human mesenchymal stem cells (hMSCs) were purchased from Lonza (Walkersville, Md.) and expanded in Mesenchymal Stem Cell Growth Media (Lonza). Cells between passage 3 and 6 were used for the experiments.
Compound Screening: Each compound was dissolved in DMSO as a 10 mM stock and used to prepare compound source plates. Serial dilution (1:3, 6-point dose-response curves from 2700 nM to 10 nM) and compound transfer was performed using the ECHO 550 (Labcyte, Sunnyvale, Calif.) into 96-well clear bottom assay plates (Greiner Bio-One) with appropriate DMSO backfill for a final DMSO concentration of 0.03%. hMSCs were plated at 20,000 cells/well in 250 μL/well Incomplete Chondrogenic Induction Medium (Lonza; DMEM, dexamethasone, ascorbate, insulin-transferrin-selenium [ITS supplement], gentamycin-amphotericin [GA-1000], sodium pyruvate, proline and L-glutamine). TGF-β3 (10 ng/mL) was used as a positive control for differentiation while negative control wells were treated with 75 nL DMSO for normalization and calculating EC50 values. Cells were incubated at 37° C. and 5% CO2 for 6 days. To image chondrogenic nodules, the cells were fixed using 4% formaldehyde (Electron Microscopy Sciences), and stained with 2 μg/mL Rhodamine B (Sigma-Aldrich) and 20 μM Nile Red (Sigma-Aldrich) [Johnson K., et. al, A Stem Cell-Based Approach to Cartilage Repair, Science, (2012). 336(6082), 717-721]. The nodules imaged (4 images per well at 4× magnification) by excitation at 531 nm and emission at 625 nm and quantified using the CellInsight CX5 (Thermo Scientific). Number of nodules in each well was normalized to the average of 3 DMSO treated wells on the same plate using Excel (Microsoft Inc.). The normalized averages (fold change over DMSO) of 3 replicate wells for each compound concentration were calculated. Due to solubility limitations of some of the compounds, curve fitting was incomplete leading to inaccurate EC50 determinations.
Using TGF-β3 as a positive control, the concentration of representative compounds required to induce 50% levels of chondrogenesis is reported. In addition, the maximum activity of each compound and the respective dose that each compound reached maximum chondrogenesis activity is reported.

[2] = system: primary human fibroblasts derived from IPF patients (LL29 cells); assay: Inhibition of the fibrotic process: αSMA staining in TGF-β1 treated fibroblasts; type: cell-based; settings: Fibroblast; for EC50: 96 h, LL29 cells, TGF-β1 20 ng/mL, 4 days, % αSMA positive cells
In short: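 IPF-derived LL29 fibroblasts in F12 with 1% FBS dosed with compound (11-point, 10 μM to 1.87 nM, 0.1% DMSO), then 20 ng/mL TGF-β1 after 1 h, and cultured 4 days at 37 °C. αSMA-positive cell fraction imaged after excluding SYTOX-positive cells, normalized to TGF-β1/DMSO wells; EC50 by non-linear regression, % inhibition at 10 μM if EC50 >10 μM.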

Row | Structure (SMILES) | EC50 [1] | Emax [1] | EC50 [2] | inhibition at 10 µM ([2]; at 10 μM, given where EC50 >10 μM, LL29, αSMA, read-out: percent inhibition at 10 μM)
1 | CN1CCN(c2ccnc3[nH]c(-c4n[nH]c5ccc(-c6cncc(NC(=O)C(C)(C)C)c6)nc45)cc23)CC1 [Compound 232, N-(5-(3-(4-(4-Methylpiperazin-1-yl)-1H-pyrrolo[2,3-b]pyridin-2-yl)-1H-pyrazolo[4,3-b]pyridin-5-yl)pyridin-3-yl)pivalamide] |  | 24% | 795 nM | 
2 | CN1CCN(c2ccnc3[nH]c(-c4n[nH]c5ccc(-c6cncc(NC(=O)CC(C)(C)C)c6)nc45)cc23)CC1 [Compound 240, 3,3-Dimethyl-N-(5-(3-(4-(4-methylpiperazin-1-yl)-1H-pyrrolo[2,3-b]pyridin-2-yl)-1H-pyrazolo[4,3-b]pyridin-5-yl)pyridin-3-yl)butanamide] |  | 30% | 670 nM | 
3 | CN(C)Cc1cncc(-c2ccc3[nH]nc(-c4cc5cccnc5[nH]4)c3n2)c1 [Compound 265, 1-(5-(3-(1H-Pyrrolo[2,3-b]pyridin-2-yl)-1H-pyrazolo[4,3-b]pyridin-5-yl)pyridin-3-yl)-N,N-dimethylmethanamine] |  | 37% | 3200 nM | 
4 | c1cnc2[nH]c(-c3n[nH]c4ccc(-c5cncnc5)nc34)cc2c1 [Compound 279, 5-(Pyrimidin-5-yl)-3-(1H-pyrrolo[2,3-b]pyridin-2-yl)-1H-pyrazolo[4,3-b]pyridine] |  | 43% | > 10000 nM | 0%
5 | CN(C)CCNc1cc(F)cc(-c2ccnc3[nH]c(-c4n[nH]c5ccc(-c6ccncc6)nc45)cc23)c1 [Compound 466, N^1-(3-Fluoro-5-(2-(5-(pyridin-4-yl)-1H-pyrazolo[4,3-b]pyridin-3-yl)-1H-pyrrolo[2,3-b]pyridin-4-yl)phenyl)-N^2,N^2-dimethylethane-1,2-diamine] |  | 17% | 391 nM | 
6 | CN(C)CCOc1cncc(-c2ccc3[nH]nc(-c4cc5c(-c6cccnc6)ccnc5[nH]4)c3n2)c1 [Compound 563, N,N-Dimethyl-2-((5-(3-(4-(pyridin-3-yl)-1H-pyrrolo[2,3-b]pyridin-2-yl)-1H-pyrazolo[4,3-b]pyridin-5-yl)pyridin-3-yl)oxy)ethan-1-amine] |  | 22% | 3040 nM | 
7 | c1cc(-c2ccnc3[nH]c(-c4n[nH]c5ccc(-c6cncc(OCCN7CCCC7)c6)nc45)cc23)ccn1 [Compound 578, 3-(4-(Pyridin-4-yl)-1H-pyrrolo[2,3-b]pyridin-2-yl)-5-(5-(2-(pyrrolidin-1-yl)ethoxy)pyridin-3-yl)-1H-pyrazolo[4,3-b]pyridine] |  | 40% | 1240 nM | 

Continued, in another order:

Row | EC50 [1] | Structure (SMILES) | Emax [1] | EC50 [2] | inhibition at 10 µM ([2]; at 10 μM, given where EC50 >10 μM, LL29, αSMA, read-out: percent inhibition at 10 μM)
8 | 10 nM | CN1CCN(c2ccnc3[nH]c(-c4n[nH]c5ccc(-c6cncc(NC(=O)c7ccccc7)c6)nc45)cc23)CC1 [Compound 235, N-(5-(3-(4-(4-Methylpiperazin-1-yl)-1H-pyrrolo[2,3-b]pyridin-2-yl)-1H-pyrazolo[4,3-b]pyridin-5-yl)pyridin-3-yl)benzamide] | 62% | 3220 nM | 
9 | 10 nM | c1cncc(-c2ccc3[nH]nc(-c4cc5cccnc5[nH]4)c3n2)c1 [Compound 256, 5-(Pyridin-3-yl)-3-(1H-pyrrolo[2,3-b]pyridin-2-yl)-1H-pyrazolo[4,3-b]pyridine] | 66% | 308 nM | 
10 | 10 nM | CCNCc1cncc(-c2ccc3[nH]nc(-c4cc5cccnc5[nH]4)c3n2)c1 [Compound 258, N-((5-(3-(1H-Pyrrolo[2,3-b]pyridin-2-yl)-1H-pyrazolo[4,3-b]pyridin-5-yl)pyridin-3-yl)methyl)ethanamine] | 80% | 1580 nM | 
11 | 100 nM | FC1(F)CCN(Cc2cncc(-c3ccc4[nH]nc(-c5cc6cccnc6[nH]5)c4n3)c2)C1 [Compound 278, 5-(5-((3,3-Difluoropyrrolidin-1-yl)methyl)pyridin-3-yl)-3-(1H-pyrrolo[2,3-b]pyridin-2-yl)-1H-pyrazolo[4,3-b]pyridine] | 134% | 86 nM | 
12 | 900 nM | CN(C)CCNc1cc(F)cc(-c2ccnc3[nH]c(-c4n[nH]c5ccc(-c6cncc(CNCC7CCCC7)c6)nc45)cc23)c1 [Compound 473, N^1-(3-(2-(5-(5-(((Cyclopentylmethyl)amino)methyl)pyridin-3-yl)-1H-pyrazolo[4,3-b]pyridin-3-yl)-1H-pyrrolo[2,3-b]pyridin-4-yl)-5-fluorophenyl)-N^2,N^2-dimethylethane-1,2-diamine] | 111% | 2000 nM | 
13 | 300 nM | CN1CCN(c2ccnc3[nH]c(-c4n[nH]c5ccc(-c6cn[nH]c6)nc45)cc23)CC1 [Compound 635, 3-(4-(4-Methylpiperazin-1-yl)-1H-pyrrolo[2,3-b]pyridin-2-yl)-5-(1H-pyrazol-4-yl)-1H-pyrazolo[4,3-b]pyridine] | 60% | 1500 nM | 
14 | 10 nM | O=C(CC1CCNCC1)Nc1cncc(-c2ccc3[nH]nc(-c4cc5c(-c6ccoc6)ccnc5[nH]4)c3n2)c1 [Compound 689, N-(5-(3-(4-(Furan-3-yl)-1H-pyrrolo[2,3-b]pyridin-2-yl)-1H-pyrazolo[4,3-b]pyridin-5-yl)pyridin-3-yl)-2-(piperidin-4-yl)acetamide] | 102% | 2180 nM | 
15 | 300 nM | c1csc(-c2ccnc3[nH]c(-c4n[nH]c5ccc(-c6cncc(OC7CCNCC7)c6)nc45)cc23)c1 [Compound 704, 5-(5-(Piperidin-4-yloxy)pyridin-3-yl)-3-(4-(thiophen-2-yl)-1H-pyrrolo[2,3-b]pyridin-2-yl)-1H-pyrazolo[4,3-b]pyridine] | 51% | 1820 nM | 
